Measured values: ChEMBL document CHEMBL1201862, “PubChem BioAssay data set” (2004)
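In this assay, cells in 96-well plates receive the compound at five concentrations for 48 hours. Endpoints are linearly interpolated between the surrounding concentrations. GI50 is the concentration that inhibits growth by half.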 Calls of active or inactive are those of the source. No stated cut-off is given here; in the data, active = GI50 up to about 1.1 µM and inactive = higher.

Assays:
Test in all cases: NCI anticancer screen, dose series, 48 h
HCC 2998 = test system: HCC 2998
MDA-MB-231 = test system: MDA-MB-231
SK-MEL-2 = test system: SK-MEL-2
SW-620 = test system: SW-620
CAKI-1 = test system: CAKI-1
MOLT-4 = test system: MOLT-4
BT-549 = test system: BT-549
SK-MEL-5 = test system: SK-MEL-5
T47D = test system: T47D
HCT-116 = test system: HCT-116
SR = test system: SR
UACC-62 = test system: UACC-62
UACC-257 = test system: UACC-257
IGROV-1 = test system: IGROV-1
SF-295 = test system: SF-295
K562 = test system: K562
TK-10 = test system: TK-10
SK-MEL-28 = test system: SK-MEL-28
HL-60 = test system: HL-60
SF-539 = test system: SF-539

Structure (SMILES) | GI50 (HCC 2998) | GI50 (MDA-MB-231) | GI50 (SK-MEL-2) | GI50 (SW-620) | GI50 (CAKI-1) | GI50 (MOLT-4) | GI50 (BT-549) | GI50 (SK-MEL-5) | GI50 (T47D) | GI50 (HCT-116) | GI50 (SR) | GI50 (UACC-62) | GI50 (UACC-257) | GI50 (IGROV-1) | GI50 (SF-295) | GI50 (K562) | GI50 (TK-10) | GI50 (SK-MEL-28) | GI50 (HL-60) | GI50 (SF-539)
CN(C)CS/C(N)=N\C(O)C(Cl)(Cl)Cl (stereo not given) | > 100 µM (inactive) | > 100 µM (inactive) | > 100 µM (inactive) | > 100 µM (inactive) | > 100 µM (inactive) | > 100 µM (inactive) | > 100 µM (inactive) | > 100 µM (inactive) | > 100 µM (inactive) | > 100 µM (inactive) | 82.2 µM (inactive) | > 100 µM (inactive) | > 100 µM (inactive) | > 100 µM (inactive) | > 100 µM (inactive) | > 100 µM (inactive) | > 100 µM (inactive) | > 100 µM (inactive) | – | –
Nc1nc(F)nc2c1ncn2C1OC(CO)C(O)C1O (stereo not given) | 49.3 µM (inactive) | > 100 µM (inactive) | > 100 µM (inactive) | 69 µM (inactive) | 34.6 µM (inactive) | 1.14 µM (inactive) | 57.5 µM (inactive) | 55.5 µM (inactive) | > 70 µM (inactive) | 39.5 µM (inactive) | – | 58.6 µM (inactive) | > 90.8 µM (inactive) | > 100 µM (inactive) | > 100 µM (inactive) | > 76.6 µM (inactive) | > 100 µM (inactive) | > 77.3 µM (inactive) | 42.5 µM (inactive) | > 100 µM (inactive)
CC(=O)O[C@H]1C[C@](C)(O)[C@@]23CC([C@@H](OC(=O)C(C)(C)O)[C@@H](OC(C)=O)C2(COC(=O)c2ccccc2)[C@H]1OC(C)=O)C(C)(C)O3 (stereo not given in full) | > 100 µM (inactive) | 16.8 µM (inactive) | 86.5 µM (inactive) | > 100 µM (inactive) | > 100 µM (inactive) | 31.4 µM (inactive) | > 100 µM (inactive) | 77.6 µM (inactive) | > 100 µM (inactive) | > 100 µM (inactive) | – | > 100 µM (inactive) | > 100 µM (inactive) | > 100 µM (inactive) | 84.3 µM (inactive) | 50 µM (inactive) | > 100 µM (inactive) | > 100 µM (inactive) | – | > 100 µM (inactive)
O=c1onc2n1-c1cc(Cl)ccc1C(=S)N1CSCC21 (stereo not given) | > 100 µM (inactive) | > 100 µM (inactive) | > 100 µM (inactive) | > 100 µM (inactive) | > 100 µM (inactive) | > 100 µM (inactive) | > 100 µM (inactive) | > 100 µM (inactive) | > 100 µM (inactive) | > 100 µM (inactive) | 34.6 µM (inactive) | > 100 µM (inactive) | > 100 µM (inactive) | > 100 µM (inactive) | > 100 µM (inactive) | 26.7 µM (inactive) | > 100 µM (inactive) | > 100 µM (inactive) | – | –
COc1ccc(Nc2nc(N)c(C(=O)c3ccc(Cl)cc3)s2)cc1 | 0.0357 µM (active) | 0.047 µM (active) | < 0.01 µM (active) | < 0.01 µM (active) | < 0.01 µM (active) | < 0.01 µM (active) | < 0.0135 µM (active) | 0.0123 µM (active) | 24 µM (inactive) | < 0.01 µM (active) | – | < 0.01 µM (active) | 42.9 µM (inactive) | 0.0655 µM (active) | < 0.01 µM (active) | < 0.01 µM (active) | 3.61 µM (inactive) | 1.02 µM (active) | < 0.01 µM (active) | < 0.01 µM (active)
Cc1ccc(Sc2ccccc2C23OC(C)(C4C(=O)N(c5ccccc5)C(=O)C42)N(C)C3=O)cc1 (stereo not given) | – | > 100 µM (inactive) | > 100 µM (inactive) | > 100 µM (inactive) | > 100 µM (inactive) | > 100 µM (inactive) | > 100 µM (inactive) | > 100 µM (inactive) | > 100 µM (inactive) | > 100 µM (inactive) | > 100 µM (inactive) | 88.5 µM (inactive) | > 100 µM (inactive) | > 100 µM (inactive) | > 100 µM (inactive) | > 100 µM (inactive) | > 100 µM (inactive) | > 100 µM (inactive) | > 100 µM (inactive) | > 100 µM (inactive)
O/N=N/c1ccc2ccccc2n1 | – | > 100 µM (inactive) | > 100 µM (inactive) | > 100 µM (inactive) | > 100 µM (inactive) | > 100 µM (inactive) | > 100 µM (inactive) | > 100 µM (inactive) | > 100 µM (inactive) | > 100 µM (inactive) | > 100 µM (inactive) | > 100 µM (inactive) | > 100 µM (inactive) | > 100 µM (inactive) | > 100 µM (inactive) | > 100 µM (inactive) | > 100 µM (inactive) | > 100 µM (inactive) | > 100 µM (inactive) | > 100 µM (inactive)
